{"source": "patent US11660354B2", "about": "“Inhibitor-functionalized ultrasmall nanoparticles and methods thereof” (Memorial Sloan Kettering Cancer Center, priority 2016, dated 2023)", "key": {"[1]": {"system": "PC lesion and metastatic LNs", "assay": "Clinical PET with ^68Ga-RM2 and ^68Ga-PSMA-11 in prostate cancer patients", "assay_type": "in vivo", "details": "patient with biochemical recurrence of PC", "from_the_text": "FIGS. 20A-20B show a patient with biochemical recurrence of PC imaged with PSMA ligand ^68Ga-PSMA-11 and GRPr ligand ^68Ga-RM2. ^68Ga-PSMA-11 scan acquired 4 weeks after the ^68Ga-RM2 scan. Retroperitoneal LN metastases are better visualized on the GRPr scan than on the PSMA scan."}, "PC3 cells": {"system": "PC3 cells", "assay": "Radiolabeled particle cell binding and internalization, PC3 cells", "assay_type": "cell-based", "method": "(§1) Blocking studies show specific uptake.\n(§2) PSMAi-(^64Cu)NOTA-C′ dots and GRP-(^177Lu)DOTA-C′ dots were examined for cell binding with LNCaP and PC3 cells (FIGS. 11A-11C). Cells were incubated with 100,000 CPM of PD10 purified radiolabeled C′ dots. PMPA and bombesin were used for blocking PSMAi and GRP radiolabeled C′ dots. After 3 PBS washes, the membrane surface-bound fraction was removed with 40 mM NaOAc (pH=4.5, 0.9% NaCl, 0.2% BSA), after which the cells were dissolved in NaOH to obtain internalized counts."}, "[2]": {"assay_type": "in vitro ADME", "details": "serum", "method": "PSMAi-NOTA-C′ dots (21 μmol) were radiolabeled with ^64Cu or ^177Lu (210 pmol) in NH4Ac buffer pH 5.5 at 70° C. for 20 min. The average radiolabeling yields were 98.6% and 99.3% radiochemical purities of 98% and 99.9%. Stabilities of the radiolabeled particle complexes were examined in water, saline, and serum (Table 1).\nIn the final step, PSMA and GRPr targeted C′ dots can be radiolabeled with ^64Cu and ^67Ga at various concentrations (˜0.3-300 nmol) in acetate buffer (pH 5.5) for 30 min and at 70° C. to obtain PSMAi-(^64Cu)NOTA-C′ dots and GRP-(^67Ga)DOTA-C′ dots. For ^89Zr labeling, as-synthesized PSMAi-DFO-C′ dot can be incubated with ^89Zr-oxalate at 37° C. for 30 min (pH 7-8). Radiolabeled PSMA-targeting C′ dots and GRPr-targeting C′ dots can be purified using PD-10 (G-25) size exclusion chromatography. For radiolabeling experiments, specific radiolabeling parameters can be determined for optimal radiolabeling efficiencies and high specific activities. Labeling can begin with the conditions shown to produce the highest specific activity. Quality control includes ITLC, HPLC, and cell-based receptor binding bioassays. Stability of radiolabeled C′ dots can be determined in H2O, PBS at 25° C. and mouse and human serum at 37° C."}, "TRAMP-C2 cell line": {"system": "TRAMP-C2 cell line", "assay": "Binding of radiolabeled C′ dots to the TRAMP-C2 cell line", "assay_type": "cell-based, mouse", "from_the_text": "The advantages of the TRAMP model are the development of disease that mirrors human pathology in an immune competent mouse, coupled with the formation of LN and bone metastases. Disadvantages are that the biology/physiology of mouse prostate is not the same as the human organ. For example, the mouse prostate is not a single organ, as in human, but has 4 lobes, different from the single organ human prostate. The advantage of the TRAMP model is the ability to image metastatic disease and nodal metastases with PSMA- and GRPr-targeting C′ dots using PET and fluorescence-based multiplexing. Binding studies of PSMAi-(^67Ga)NOTA-C′ dots and GRP-(^177Lu)DOTA-C′ dots to the TRAMP-C2 cell line were examined (FIG. 17). The TRAMP-C2 cell line was derived from TRAMP prostate tumors. Both the PSMAi-(^67Ga)NOTA-C′ dots and GRP-(^177Lu)DOTA-C′ dots bound the TRAMP-C2 cell line. […] This model enables proof-of-concept studies to be conducted for multiplexed detection of nodal metastases using a cocktail of PSMAi-PEG-Cy5.5-C′ dots and GRP-PEG-CW800-C′ dots."}, "LNCaP cells": {"system": "LNCaP cells", "assay": "Radiolabeled particle cell binding and internalization, LNCaP cells", "assay_type": "cell-based", "method": "as §1, §2"}}, "note": "Read-outs that look alike come from different tables or passages of the source. Square brackets hold non-standard residues; d marks the D form. Sta = CC(C)C[C@H](N)[C@@H](O)CC(=O)O; Ahx = NCCCCCC(=O)O"}
{"compound": "O=C(O)CCc1ccc(O)c(CN(CCN(CC(=O)O)Cc2cc(CCC(=O)NCCCCCC(=O)NCCCC[C@H](NC(=O)N[C@@H](CCC(=O)O)C(=O)O)C(=O)O)ccc2O)CC(=O)O)c1", "note": "(68Ga complex, metal not drawn) [PSMA-11]", "values": [{"measurement": "normal organ uptake", "setting": "[1]", "value": "very high RES and renal uptake"}]}
{"compound": "GRP-(^177Lu)DOTA-C′ dots: GRP antagonist-DOTA peptide-functionalized C′ dots radiolabeled with ^177Lu ({Ac-Cys-Ahx-Ahx-K(DOTA)-4‑amino‑1‑carboxymethyl‑piperidine}-HQWAVGH[Sta]L-NH2; also: Cys thiol bound to maleimide-PEG-silane on silica nanoparticle, DOTA labelled with 177Lu)", "values": [{"measurement": "cell binding, uptake and internalization", "setting": "PC3 cells", "value": "bound PC3 cells, but were not efficiently internalized"}, {"measurement": "binding in the presence of bombesin", "setting": "PC3 cells; blocking with bombesin", "value": "blocked"}, {"measurement": "percent radiolabeled C′ dot stability", "setting": "[2]; human, 1 h", "value": 99.9, "unit": "%"}, {"measurement": "percent radiolabeled C′ dot stability", "setting": "[2]; human, 4 h", "value": 99.9, "unit": "%"}, {"measurement": "percent radiolabeled C′ dot stability", "setting": "[2]; human, 24 h", "value": 99.8, "unit": "%"}, {"measurement": "percent radiolabeled C′ dot stability", "setting": "[2]; mouse, 1 h", "value": 99.9, "unit": "%"}, {"measurement": "percent radiolabeled C′ dot stability", "setting": "[2]; mouse, 4 h", "value": 99.8, "unit": "%"}, {"measurement": "percent radiolabeled C′ dot stability", "setting": "[2]; mouse, 24 h", "value": 98.6, "unit": "%"}, {"measurement": "binding to TRAMP-C2 cell line with RM2 peptide", "setting": "TRAMP-C2 cell line; addition of an excess of GRPr targeting RM2 peptide", "value": "significantly reduced"}, {"measurement": "binding to TRAMP-C2 cell line", "setting": "TRAMP-C2 cell line; alone", "value": "bound"}, {"measurement": "cell binding, uptake and internalization", "setting": "LNCaP cells", "value": "low levels of binding"}]}
